Read-outs that look alike come from different tables or passages of the source.
Assays:
[1] = Stability/compatibility of carglumic acid-excipient binary mixes, HPLC chromatographic purity; type: physicochemical
Method: Carglumic acid alone was also stored under the same conditions. […] Chromatographic purity have been tested for all the reported combinations and storage conditions. Under these chromatographic conditions the retention time (Rt) of carglumic acid is about 6.6 min. […] [table] [table]

[2] = cited from earlier work
[3] = 25° C./60% RH Closed bottles, 15 days
[4] = 25° C./60% RH Closed bottles, 30 days
[5] = 25° C./60% RH Open bottles, 7 days
[6] = 25° C./60% RH Open bottles, 15 days
[7] = 40° C./75% RH Closed bottles, 15 days
[8] = 40° C./75% RH Closed bottles, 30 days

NC(=O)N[C@@H](CCC(=O)O)C(=O)O [Carglumic Acid, Carglumic acid]
0.05%: Max, single unknown impurity [1, 5]
0.00%: Imp. 2 RRT 2.21 [1, 3] | Imp. 5b RRT 2.77 [1, 3] | Imp. 6 RRT 1.20 [1, 3] | Imp. 5b RRT 2.77 [1, 4] | Imp. 6 RRT 1.20 [1, 4] | Imp. 5b RRT 2.77 [1, 5] | Imp. 6 RRT 1.20 [1, 5] | Imp. 5a RRT 2.34 [1, 6] | Imp. 5b RRT 2.77 [1, 6] | Imp. 6 RRT 1.20 [1, 6] | Imp. 6 RRT 1.20 [1, 7] | Imp. 5b RRT 2.77 [1, 8] | Imp. 6 RRT 1.20 [1, 8] | Imp. 5b RRT 2.77 ([1]; 60° C. Closed bottles, 1 day) | Imp. 6 RRT 1.20 ([1]; 60° C. Closed bottles, 1 day) | Imp. 5a RRT 2.34 ([1]; t = 0) | Imp. 6 RRT 1.20 ([1]; t = 0)
0.07%: Total impurities ([1]; t = 0)
slightly soluble: Solubility ([2]; cold water)
0.04%: Imp. 1 RRT 1.93 [1, 6]
0.12%: Total impurities [1, 7]
0.10%: Total impurities ([1]; 60° C. Closed bottles, 1 day)
0.02%: Imp. 5a RRT 2.34 [1, 5] | Max, single unknown impurity [1, 6] | Max, single unknown impurity [1, 7] | Max, single unknown impurity ([1]; 60° C. Closed bottles, 1 day) | Imp. 1 RRT 1.93 ([1]; t = 0)
0.01%: Imp. 1 RRT 1.93 [1, 3] | Imp. 5a RRT 2.34 [1, 3] | Imp. 2 RRT 2.21 [1, 4] | Imp. 5a RRT 2.34 [1, 4] | Imp. 2 RRT 2.21 [1, 5] | Imp. 2 RRT 2.21 [1, 6] | Imp. 2 RRT 2.21 [1, 7] | Imp. 5a RRT 2.34 [1, 7] | Imp. 5b RRT 2.77 [1, 7] | Imp. 2 RRT 2.21 [1, 8] | Imp. 5a RRT 2.34 [1, 8] | Imp. 2 RRT 2.21 ([1]; 60° C. Closed bottles, 1 day) | Imp. 5a RRT 2.34 ([1]; 60° C. Closed bottles, 1 day) | Imp. 2 RRT 2.21 ([1]; t = 0) | Imp. 5b RRT 2.77 ([1]; t = 0)
0.08%: Total impurities [1, 3] | Total impurities [1, 4]
0.11%: Total impurities [1, 6] | Total impurities [1, 8]
practically insoluble: Solubility ([2]; organic solvents (cyclohexane, dichloromethane, ether))
0.18%: Total impurities [1, 5]
soluble: Solubility ([2]; boiling water)
0.03%: Max, single unknown impurity [1, 3] | Imp. 1 RRT 1.93 [1, 4] | Max, single unknown impurity [1, 4] | Imp. 1 RRT 1.93 [1, 5] | Imp. 1 RRT 1.93 [1, 7] | Imp. 1 RRT 1.93 [1, 8] | Max, single unknown impurity [1, 8] | Imp. 1 RRT 1.93 ([1]; 60° C. Closed bottles, 1 day) | Max, single unknown impurity ([1]; t = 0)

Reference: patent publication US20200397728A1, “PHARMACEUTICAL FORMULATION FOR CARGLUMIC ACID” (RECORDATI S.p.A., priority 2019, published 2020)
